This is an account of results in ChEMBL document CHEMBL4118030, “Polyketides and Anthranilic Acid Possessing 6-Deoxy-α-l-talopyranose from a Streptomyces Species” (J Nat Prod, 2017).

Molecules are shown by their SMILES. The source made the active and inactive calls. The calls are words filed in the database; no cut-off is given here.

Assay [1] deals with HeLa. The assay can be described thus: Induction of autophagosome accumulation in human HeLa cells harboring RFP-GFP-LC3 assessed as increase in p62 level after 24 hrs by immunoblot method. The class given is functional, cell-based.
Assay [2] concerns the target T1, Indoleamine 2,3-dioxygenase 1 (Homo sapiens, UniProt P14902). The assay can be described thus: Inhibition of ascorbic acid/methylene blue activated recombinant human IDO expressed in Escherichia coli up to 10 uM using L-Tryptophan as substrate after 60 mins by spectrophotometric method relative to control.
Target sequence in this assay (P14902 whole entry, looked up): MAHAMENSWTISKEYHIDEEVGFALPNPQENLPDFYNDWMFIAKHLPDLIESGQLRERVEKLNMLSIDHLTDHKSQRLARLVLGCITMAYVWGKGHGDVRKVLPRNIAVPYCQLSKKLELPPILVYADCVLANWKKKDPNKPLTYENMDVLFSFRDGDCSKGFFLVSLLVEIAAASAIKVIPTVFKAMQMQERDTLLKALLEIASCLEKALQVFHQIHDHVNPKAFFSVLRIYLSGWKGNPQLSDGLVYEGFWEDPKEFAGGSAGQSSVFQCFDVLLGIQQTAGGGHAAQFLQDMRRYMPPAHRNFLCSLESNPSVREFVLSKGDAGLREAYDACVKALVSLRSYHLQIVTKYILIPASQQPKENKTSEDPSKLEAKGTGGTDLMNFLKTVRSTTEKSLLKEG
For assay [3], the system named is HeLa. The assay can be described thus: Antiproliferative activity against human HeLa cells after 48 hrs by MTT assay. The class given is functional, cell-based.
Assay [4] deals with MDA-MB-231. Briefly: Antiproliferative activity against human MDA-MB-231 cells after 48 hrs by MTT assay. The settings on record: MDA-MB-231, 48 h. The class given is functional, cell-based.
Assay [5] has as its system HL-60. The assay can be described thus: Antiproliferative activity against human HL60 cells after 48 hrs by EZ-Cytox cell viability assay. The assay is classed as functional, cell-based. The settings on record: HL-60, 48 h.
Assay [6] relates to HeLa. Briefly: Induction of autophagosome accumulation in human HeLa cells harboring RFP-GFP-LC3 assessed as GFP-LC3 puncta formation at 30 uM after 24 hrs by DAPI staining based fluorescence microscopic method. The assay is classed as functional, cell-based.
Assay [7] has as its system U2OS. The assay can be described thus: Antiproliferative activity against human U2OS cells after 48 hrs by MTT assay. The assay is classed as functional, cell-based.
The test system of assay [8] is SW480. Briefly: Antiproliferative activity against human SW480 cells after 48 hrs by MTT assay. Conditions: SW480, 48 h. The assay is classed as functional, cell-based.
Assay [9] relates to HeLa. Briefly: Induction of autophagosome accumulation in human HeLa cells harboring RFP-GFP-LC3 assessed as increase in LC3-2 level after 24 hrs by immunoblot method. The class given is functional, cell-based.
Assay [10] deals with T1, Indoleamine 2,3-dioxygenase 1. The assay can be described thus: Inhibition of ascorbic acid/methylene blue activated recombinant human IDO expressed in Escherichia coli using L-Tryptophan as substrate after 60 mins by spectrophotometric method.
Target sequence in this assay (P14902 whole entry): as the sequence (P14902 whole entry, looked up) above

Take `C/C=C(\C)[C@H](O)[C@H](C)/C=C(C)/C=C/C/C(C)=C/Cc1nc(OC)c(OC)c(O[C@@H]2O[C@@H](C)[C@@H](O)[C@@H](O)[C@H]2O)c1C`: the Activity entry in [1] and in assay [9] was “Dose-dependent effect” each time. In addition, the inhibition in assay [2] is below 50%. The IC50 amounted to 27.3 µM in [3]; 35.1 µM in assay [4]; 24.8 µM in assay [5]; 29.6 µM in assay [7]; 23 µM in assay [8]. In [6], the result was Active.
Regarding `C/C1=C/C=C\C=C\[C@H](C)[C@@H](O)CC(=O)/C(C)=C/C[C@H](O)/C=C/[C@H](C)[C@H](O)[C@@H](C)/C=C(\C)C(=O)c2c(O)c(C)cc3c2C(=O)C(Cl)=C(NC1=O)C3=O` [NAPHTHOMYCIN A], the IC50 in assay [3] was 30.2 µM; in assay [10], 0.44 µM; in [4] it was 34.6 µM; in assay [5], 2.1 µM; in assay [7], 20.5 µM; in [8], 7.6 µM.
On to `CNc1ccccc1C(=O)O[C@@H]1O[C@@H](C)[C@@H](O)[C@@H](O)[C@H]1O`, for which, in assay [2], the inhibition was below 50%. Besides, the IC50 in assay [3], in assay [4], in [5], in [7] and in assay [8] was above 100 µM in each case.
Regarding `C/C(=C\[C@H](C)[C@@H](O)[C@@H](C)/C=C/[C@@H](O)C/C=C(\C)C(=O)C[C@H](O)[C@@H](C)/C=C/C=C\C=C/C(=O)NC1=C(Cl)C(=O)c2cc(O)c(C)cc2C1=O)C(=O)O`, the IC50 in assay [3] is 71.4 µM; in [4], above 100 µM; in [5], 42.2 µM; in assay [7], above 100 µM; in [8] it was 78.1 µM.
Take `CC(=O)NC1=CC(=O)c2cc(O[C@@H]3O[C@@H](C)[C@@H](O)[C@@H](O)[C@H]3O)c(C)cc2C1=O`: the IC50 in assay [3] came out at 35 µM; in assay [10] it was 0.56 µM; in assay [4], 72.1 µM; in assay [5], 7.1 µM; in assay [7], 33.6 µM; in assay [8] it was 9.3 µM.
Turning to `COc1cccc2c1C(=O)c1c(O)c3c(c(O)c1C2=O)C[C@@](O)(C(=O)CO)C[C@@H]3O[C@H]1C[C@H](N)[C@H](O)[C@H](C)O1` [DOXORUBICIN], the IC50 in [3] amounted to 0.606 µM; in [4], 0.369 µM; in assay [5] it was 0.532 µM; in [7], 0.563 µM; in [8], 0.406 µM.
Take `C/C=C(\C)[C@H](O)[C@H](C)/C=C(C)/C=C/C/C(C)=C/Cc1nc(OC)c(OC)c(O)c1C` [PIERICIDIN A]: the Activity entry in assay [1] and in assay [9] was “Dose-dependent effect” throughout. Also, the inhibition in [2] is below 50%. The IC50 in [3] is 84.9 µM; in [4], above 100 µM; in assay [5], 82.1 µM; in assay [7] it was 91.5 µM; in [8], 82.1 µM. For the same compound, the outcome in [6] was Active.
For `C/C(=C\[C@H](C)[C@@H](O)[C@@H](C)/C=C/[C@@H](O)C/C=C(\C)C(=O)C[C@H](O)[C@@H](C)/C=C/C=C\C=C/C(=O)Nc1c(Cl)c(O[C@@H]2O[C@@H](C)[C@@H](O)[C@@H](O)[C@H]2O)c2cc(O)c(C)cc2c1O)C(=O)O`, the inhibition in [2] is below 50%. For the same compound, the IC50 in [3] is above 100 µM; in assay [4], above 100 µM; in [5], 91.4 µM; in assay [7] it was above 100 µM; in [8], 94.3 µM.
Consider `CC1=CC(=O)c2ccccc2C1=O` [MENADIONE], for which the IC50 in assay [10] was found to be 0.37 µM.
